Data: patent publication US6812245B2, “Polycylic xanthones and their use” (Instituto Biomar S.A., priority 2000, dated 2004)

Experiments:
Format in all cases: cell-based
mouse leukaemia P-388 = assay: in vitro antitumour activity in cell cultures, mouse leukaemia P-388; conditions: P388; mouse leukaemia P-388 cell culture
Description: (§1) The antitumour activities of IB-00208 have been determined in vitro in cell cultures of mouse leukaemia P-388, human lung carcinoma A-549, human colon carcinoma HT-29 and human melanoma MEL-28. The procedure was carried out using the methodology described by Bergeron et al. The IC50 found was of 0.001, 0.001, 0.001, and 0.001 μg/ml for all 4 cell lines.

human melanoma MEL-28 = assay: in vitro antitumour activity in cell cultures, human melanoma MEL-28; conditions: SK-MEL-28; human melanoma MEL-28 cell culture
Description: as §1

[1] = system: human lung carcinoma A-549; assay: in vitro antitumour activity in cell cultures, human lung carcinoma A-549; conditions: A549; human lung carcinoma A-549 cell culture
Description: as §1

[2] = system: human colon carcinoma HT-29; assay: in vitro antitumour activity in cell cultures, human colon carcinoma HT-29; conditions: human colon carcinoma HT-29 cell culture
Description: as §1

Measured: IC50

COc1ccc(OC)c2c(=O)c3c(oc12)C(=O)c1ccc2c(OC4OC(C)C(OC)C(OC)C4OC)c4c(c(O)c2c1C3=O)C(=O)OC(C)C4 (stereo not shown) [IB-00208]
1 ng/mL: all assays above
